Test results from ChEMBL document CHEMBL3885881, “DrugMatrix”.

Organism: Rattus norvegicus
Assay: DrugMatrix - Regimen: Daily Repeat
Assay type: toxicity, organism-based, Sprague-Dawley
Set-up: regimen Daily Repeat, gender Male, age 6-8 weeks
Details: in vivo, iv, vehicle 100 % SALINE; for ABSOLUTE BASOPHIL / ABSOLUTE EOSINOPHIL / ABSOLUTE LYMPHOCYTE / ABSOLUTE MONOCYTE / ABSOLUTE SEGMENTED NEUTROPHIL / BASOPHIL / EOSINOPHIL / ERYTHROCYTE COUNT / HEMATOCRIT / HEMOGLOBIN / LEUKOCYTE COUNT / LYMPHOCYTE / MEAN CORPUSCULAR HEMOGLOBIN / MEAN CORPUSCULAR HEMOGLOBIN CONCENTRATION / MEAN CORPUSCULAR VOLUME / MONOCYTE / NEUTROPHIL / NUCLEATED RED BLOOD CELLS / PLATELET COUNT: tissue Blood; for ALANINE AMINOTRANSFERASE / ALBUMIN / ALKALINE PHOSPHATASE / ASPARTATE AMINOTRANSFERASE / BLOOD UREA NITROGEN / CARBON DIOXIDE / CHLORIDE / CHOLESTEROL / CREATINE PHOSPHOKINASE / CREATININE / GLUCOSE / LACTATE DEHYDROGENASE / LIPASE / PHOSPHORUS / POTASSIUM / SODIUM / TOTAL BILIRUBIN / TOTAL PROTEIN / URIC ACID: tissue Plasma
[1] = 0 mg/kg, 72 h, dose level Control, time 3 day
[2] = 0 mg/kg, 120 h, dose level Control, time 5 day
[3] = 2 mg/kg, 72 h, dose level Low, time 3 day

SMILES: Cc1ccc(N(CC2=NCCN2)c2cccc(O)c2)cc1 [PHENTOLAMINE]
- ABSOLUTE BASOPHIL [1]: 0 CELLS/uL
- ABSOLUTE EOSINOPHIL [1]: 53.17 CELLS/uL
- ABSOLUTE LYMPHOCYTE [1]: 13731.5 CELLS/uL
- ABSOLUTE MONOCYTE [1]: 186.17 CELLS/uL
- ABSOLUTE SEGMENTED NEUTROPHIL [1]: 1645.83 CELLS/uL
- BASOPHIL [1]: 0%
- EOSINOPHIL [1]: 0.33%
- ERYTHROCYTE COUNT [1]: 5.57 x10E6/uL
- HEMATOCRIT [1]: 36.33%
- HEMOGLOBIN [1]: 13.47 G/DL
- LEUKOCYTE COUNT [1]: 15.62 x10E3/uL
- LYMPHOCYTE [1]: 88.5%
- MEAN CORPUSCULAR HEMOGLOBIN [1]: 24.22 pg
- MEAN CORPUSCULAR HEMOGLOBIN CONCENTRATION [1]: 37.1 G/DL
- MEAN CORPUSCULAR VOLUME [1]: 65.35 fL
- MONOCYTE [1]: 1.17%
- NEUTROPHIL [1]: 10%
- NUCLEATED RED BLOOD CELLS [1]: 0.17 /100WBC
- PLATELET COUNT [1]: 1295.5 x10E3/uL
- ALANINE AMINOTRANSFERASE [1]: 46.83 u/L
- ALBUMIN [1]: 4.37 G/DL
- ALKALINE PHOSPHATASE [1]: 414.33 u/L
- ASPARTATE AMINOTRANSFERASE [1]: 72.5 u/L
- BLOOD UREA NITROGEN [1]: 17 mg/dL
- CARBON DIOXIDE [1]: 23.5 mmol/L
- CHLORIDE [1]: 102 MEQ/L
- CHOLESTEROL [1]: 80.33 mg/dL
- CREATINE PHOSPHOKINASE [1]: 207.83 u/L
- CREATININE [1]: 0.22 mg/dL
- GLUCOSE [1]: 172.17 mg/dL
- LACTATE DEHYDROGENASE [1]: 131 u/L
- LIPASE [1]: 10.33 u/L
- PHOSPHORUS [1]: 11.75 mg/dL
- POTASSIUM [1]: 6.83 MEQ/L
- SODIUM [1]: 145.28 MEQ/L
- TOTAL BILIRUBIN [1]: 0.22 mg/dL
- TOTAL PROTEIN [1]: 6.22 G/DL
- URIC ACID [1]: 1.9 mg/dL
- ABSOLUTE BASOPHIL [2]: 0 CELLS/uL
- ABSOLUTE EOSINOPHIL [2]: 33 CELLS/uL
- ABSOLUTE LYMPHOCYTE [2]: 12184 CELLS/uL
- ABSOLUTE MONOCYTE [2]: 108 CELLS/uL
- ABSOLUTE SEGMENTED NEUTROPHIL [2]: 958.33 CELLS/uL
- BASOPHIL [2]: 0%
- EOSINOPHIL [2]: 0.17%
- ERYTHROCYTE COUNT [2]: 5.9 x10E6/uL
- HEMATOCRIT [2]: 36.58%
- HEMOGLOBIN [2]: 13.33 G/DL
- LEUKOCYTE COUNT [2]: 13.28 x10E3/uL
- LYMPHOCYTE [2]: 91.17%
- MEAN CORPUSCULAR HEMOGLOBIN [2]: 22.67 pg
- MEAN CORPUSCULAR HEMOGLOBIN CONCENTRATION [2]: 36.47 G/DL
- MEAN CORPUSCULAR VOLUME [2]: 62.13 fL
- MONOCYTE [2]: 0.83%
- NEUTROPHIL [2]: 7.83%
- NUCLEATED RED BLOOD CELLS [2]: 0.33 /100WBC
- PLATELET COUNT [2]: 1475.33 x10E3/uL
- ALANINE AMINOTRANSFERASE [2]: 47 u/L
- ALBUMIN [2]: 4.35 G/DL
- ALKALINE PHOSPHATASE [2]: 368.33 u/L
- ASPARTATE AMINOTRANSFERASE [2]: 90.83 u/L
- BLOOD UREA NITROGEN [2]: 15.5 mg/dL
- CARBON DIOXIDE [2]: 26.5 mmol/L
- CHLORIDE [2]: 103.33 MEQ/L
- CHOLESTEROL [2]: 71.83 mg/dL
- CREATINE PHOSPHOKINASE [2]: 585.33 u/L
- CREATININE [2]: 0.19 mg/dL
- GLUCOSE [2]: 171.17 mg/dL
- LACTATE DEHYDROGENASE [2]: 388.83 u/L
- LIPASE [2]: 10.83 u/L
- PHOSPHORUS [2]: 11.75 mg/dL
- POTASSIUM [2]: 6.21 MEQ/L
- SODIUM [2]: 143.7 MEQ/L
- TOTAL BILIRUBIN [2]: 0.17 mg/dL
- TOTAL PROTEIN [2]: 6.17 G/DL
- URIC ACID [2]: 1.98 mg/dL
- ABSOLUTE BASOPHIL [3]: 0 CELLS/uL
- ABSOLUTE EOSINOPHIL [3]: 44.67 CELLS/uL
- ABSOLUTE LYMPHOCYTE [3]: 11097.67 CELLS/uL
- ABSOLUTE MONOCYTE [3]: 122.33 CELLS/uL
- ABSOLUTE SEGMENTED NEUTROPHIL [3]: 968.67 CELLS/uL
- BASOPHIL [3]: 0%
- EOSINOPHIL [3]: 0.33%
- ERYTHROCYTE COUNT [3]: 5.48 x10E6/uL
- HEMATOCRIT [3]: 35.63%
- HEMOGLOBIN [3]: 13.4 G/DL
- LEUKOCYTE COUNT [3]: 12.23 x10E3/uL
- LYMPHOCYTE [3]: 90.67%
- MEAN CORPUSCULAR HEMOGLOBIN [3]: 24.5 pg
- MEAN CORPUSCULAR HEMOGLOBIN CONCENTRATION [3]: 37.6 G/DL
- MEAN CORPUSCULAR VOLUME [3]: 65.03 fL
- MONOCYTE [3]: 1%
- NEUTROPHIL [3]: 8%
- NUCLEATED RED BLOOD CELLS [3]: 0 /100WBC
- PLATELET COUNT [3]: 1379.67 x10E3/uL
- ALANINE AMINOTRANSFERASE [3]: 31.67 u/L
- ALBUMIN [3]: 4.47 G/DL
- ALKALINE PHOSPHATASE [3]: 406 u/L
- ASPARTATE AMINOTRANSFERASE [3]: 74 u/L
- BLOOD UREA NITROGEN [3]: 18.67 mg/dL
- CARBON DIOXIDE [3]: 19.67 mmol/L
- CHLORIDE [3]: 104.67 MEQ/L
- CHOLESTEROL [3]: 76.67 mg/dL
- CREATINE PHOSPHOKINASE [3]: 368.67 u/L
- CREATININE [3]: 0.22 mg/dL
- GLUCOSE [3]: 166 mg/dL
- LACTATE DEHYDROGENASE [3]: 137.33 u/L
- LIPASE [3]: 10.33 u/L
- PHOSPHORUS [3]: 12.63 mg/dL
- POTASSIUM [3]: 6.72 MEQ/L
- SODIUM [3]: 145.53 MEQ/L
- TOTAL BILIRUBIN [3]: 0.13 mg/dL
- TOTAL PROTEIN [3]: 6.27 G/DL
